Values after ≈ are worked out from the molar mass of the structure shown.
Tests used:
[1] = biological target: T1, Tyrosine-protein phosphatase non-receptor type 2 (Homo sapiens, UniProt P17706); experiment: Inhibition of human PTPN2 using DiFMUP as substrate by fluorescence based phosphatase assay
T1 sequence (P17706 whole entry): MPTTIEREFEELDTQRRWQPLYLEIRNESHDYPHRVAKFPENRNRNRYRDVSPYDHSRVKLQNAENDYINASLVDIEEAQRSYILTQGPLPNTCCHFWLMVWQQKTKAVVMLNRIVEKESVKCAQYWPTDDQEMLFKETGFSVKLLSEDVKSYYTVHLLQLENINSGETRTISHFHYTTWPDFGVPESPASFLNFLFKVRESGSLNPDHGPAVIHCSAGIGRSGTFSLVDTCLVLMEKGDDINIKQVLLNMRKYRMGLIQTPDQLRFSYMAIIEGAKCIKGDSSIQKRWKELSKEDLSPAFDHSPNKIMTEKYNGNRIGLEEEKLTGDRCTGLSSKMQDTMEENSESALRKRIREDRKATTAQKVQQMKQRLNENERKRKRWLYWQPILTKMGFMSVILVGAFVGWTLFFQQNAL

[2] = Inhibition of PTPN2 in IFN-gamma induced mouse B16-F10 cells; assay type: cell-based
[3] = Oral bioavailability in dog at 2 mg/kg; assay type: ADME, organism-based, Canis lupus familiaris; settings: in vivo
[4] = Apparent permeability of compound in human Caco-2 cells across apical to basolateral side
[5] = AUC (0 to t) in mouse at 10 mg/kg, po; assay type: ADME, organism-based; settings: in vivo
[6] = Solubility of compound in FeSSIF at pH 7.4
[7] = Half life in dog at 2 mg/kg, po; assay type: ADME, organism-based, Canis lupus familiaris; settings: in vivo
[8] = Oral bioavailability in rat at 10 mg/kg; assay type: ADME, organism-based; settings: in vivo
[9] = Volume of distribution at steady state in mouse at 1 mg/kg, iv; assay type: ADME, organism-based; settings: in vivo, read-out: Vdss
[10] = AUC (0 to t) in dog at 2 mg/kg, po; assay type: ADME, organism-based, Canis lupus familiaris; settings: in vivo
[11] = Oral bioavailability in mouse at 10 mg/kg; assay type: ADME, organism-based; settings: in vivo
[12] = Plasma protein binding in human assessed as unbound fraction; assay type: ADME, cell-free
[13] = Cmax in dog at 2 mg/kg, po; assay type: ADME, organism-based, Canis lupus familiaris; settings: in vivo
[14] = Kinetic solubility of the compound at pH 7.4; settings: buffer
[15] = Volume of distribution at steady state in rat at 1 mg/kg, iv; assay type: ADME, organism-based; settings: in vivo, read-out: Vdss
[16] = Clearance in mouse assessed as liver blood flow at 1 mg/kg, iv; assay type: ADME, organism-based; settings: in vivo
[17] = Cmax in mouse at 1 mg/kg, iv; assay type: ADME, organism-based; settings: in vivo
[18] = Clearance in dog assessed as liver blood flow at 1 mg/kg, iv; assay type: ADME, organism-based, Canis lupus familiaris; settings: in vivo
[19] = Efflux ratio of apparent permeability in human Caco-2 cells across basolateral to apical side over apical to basolateral side
[20] = Half life in mouse at 10 mg/kg, po; assay type: ADME, organism-based; settings: in vivo
[21] = Plasma protein binding in rat assessed as unbound fraction; assay type: ADME, cell-free
[22] = Cmax in rat at 10 mg/kg, po; assay type: ADME, organism-based; settings: in vivo
[23] = Solubility of compound in FaSSIF at pH 7.4
[24] = Volume of distribution at steady state in dog at 1 mg/kg, iv; assay type: ADME, organism-based, Canis lupus familiaris; settings: in vivo, read-out: Vdss
[25] = Clearance in rat assessed as liver blood flow at 1 mg/kg, iv; assay type: ADME, organism-based; settings: in vivo
[26] = Cmax in mouse at 50 mg/kg, po; assay type: ADME, organism-based; settings: in vivo
[27] = Plasma protein binding in mouse assessed as unbound fraction; assay type: ADME, cell-free
[28] = Half life in mouse at 50 mg/kg, po; assay type: ADME, organism-based; settings: in vivo
[29] = AUC (0 to t) in rat at 10 mg/kg, po; assay type: ADME, organism-based; settings: in vivo
[30] = AUC (0 to t) in mouse at 1 mg/kg, iv; assay type: ADME, organism-based; settings: in vivo
[31] = Cmax in mouse at 10 mg/kg, po; assay type: ADME, organism-based; settings: in vivo
[32] = Oral bioavailability in mouse at 50 mg/kg; assay type: ADME, organism-based; settings: in vivo
[33] = biological target: T2, Tyrosine-protein phosphatase non-receptor type 1 (Homo sapiens, UniProt P18031); experiment: Inhibition of human PTP1B
T2 sequence (P18031 whole entry): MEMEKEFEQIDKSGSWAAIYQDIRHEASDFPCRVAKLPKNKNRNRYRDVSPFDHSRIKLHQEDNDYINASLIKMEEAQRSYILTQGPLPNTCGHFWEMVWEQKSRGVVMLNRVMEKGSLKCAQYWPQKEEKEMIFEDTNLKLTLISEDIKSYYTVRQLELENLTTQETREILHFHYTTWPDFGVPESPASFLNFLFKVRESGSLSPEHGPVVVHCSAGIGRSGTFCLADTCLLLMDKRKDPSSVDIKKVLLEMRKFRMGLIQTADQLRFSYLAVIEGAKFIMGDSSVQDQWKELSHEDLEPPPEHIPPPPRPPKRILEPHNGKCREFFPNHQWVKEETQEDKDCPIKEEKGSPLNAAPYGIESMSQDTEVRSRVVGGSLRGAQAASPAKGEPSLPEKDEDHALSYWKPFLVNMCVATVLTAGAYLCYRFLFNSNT

[34] = AUC (0 to t) in mouse at 50 mg/kg, po; assay type: ADME, organism-based; settings: in vivo
[35] = Apparent permeability of compound in human Caco-2 cells across basolateral to apical side
[36] = Half life in mouse at 1 mg/kg, iv; assay type: ADME, organism-based; settings: in vivo
[37] = Toxicity in C57BL/6J mouse assessed as effect on body weight at 30 mg/kg, po BID measured after 19 days; assay type: organism-based; settings: in vivo, 456 h, time 19 day
[38] = biological target: T1, Tyrosine-protein phosphatase non-receptor type 2; experiment: Binding affinity to human PTPN2 assessed as dissociation constant measured upto 300 secs by SPR analysis
MC-38 = experiment: Antitumor activity in mouse MC38 cells xenografted in C57BL/6J mouse model assessed as tumor growth inhibition at 30 mg/kg, po BID administered for 19 days relative to control; assay type: functional; settings: MC-38, 456 h, time 19 day, read-out: TGI
[39] = Half life in rat at 10 mg/kg, po; assay type: ADME, organism-based; settings: in vivo

## CC1Cc2c(cc(O)c(N3CC(=O)NS3(=O)=O)c2F)CCN1CC1CC1 (racemic)
[1]
  IC50: 28.1 nM
[2]; Mus musculus, B16-F10
  IC50: 1030 nM

## CC(C)CCN[C@@H]1CCc2cc(O)c(N3CC(=O)NS3(=O)=O)c(F)c2C1 [OSUNPROTAFIB]
[3]
  bioavailability: 6%
[4]
  Papp A→B: 1.43 ×10⁻⁶ cm/s
[5]
  AUC(0-t): 903 ng·h/mL
[6]
  solubility: 223 µM (≈ 86 µg/mL)
[7]
  half-life: 3.41 h
[8]
  bioavailability: 1.4%
[9]
  Vd: 0.68 L/kg
[10]
  AUC(0-t): 319 ng·h/mL
[1]
  IC50: 2.2 nM
[11]
  bioavailability: 11%
[12]
  fraction unbound: 0.585
[13]
  Cmax: 67 ng/mL
[14]
  solubility kinetic: 204 µM (≈ 78.6 µg/mL)
[15]
  Vd: 0.33 L/kg
[16]
  LBF: 22.1%
[17]
  Cmax: 1860 ng/mL
[18]
  LBF: 20.9%
[19]
  efflux ratio: 0.065
[20]
  half-life: 4.21 h
[21]
  fraction unbound: 0.896
[22]
  Cmax: 38 ng/mL
[23]
  solubility: 206 µM (≈ 79.4 µg/mL)
[24]
  Vd: 0.31 L/kg
[25]
  LBF: 24.9%
[26]
  Cmax: 278 ng/mL
[27]
  fraction unbound: 0.978
[28]
  half-life: 4.86 h
[29]
  AUC(0-t): 173 ng·h/mL
[30]
  AUC(0-t): 851 ng·h/mL
[31]
  Cmax: 78 ng/mL
[32]
  bioavailability: 9%
[2]; Mus musculus, B16-F10
  IC50: 44 nM
[33]
  IC50: 0.69 nM
[34]
  AUC(0-t): 3820 ng·h/mL
[35]
  Papp B→A: 0.093 ×10⁻⁶ cm/s
[36]
  half-life: 1.13 h

## O=C1CN(c2c(O)cc3c(c2F)CCN(CCC2CC2)CC3)S(=O)(=O)N1
[5]
  AUC(0-t): 1320 ng·h/mL
[1]
  IC50: 4.3 nM
[20]
  half-life: 4.64 h
[31]
  Cmax: 328 ng/mL
[2]; Mus musculus, B16-F10
  IC50: 117 nM

## O=C1CN(c2c(O)cc3c(c2F)CCN(CC(F)F)CC3)S(=O)(=O)N1
[1]
  IC50: 100 nM
[2]; Mus musculus, B16-F10
  IC50: 5330 nM

## CC1Cc2c(cc(O)c(N3CC(=O)NS3(=O)=O)c2F)CCN1 (stereo in doubt; 10a)
[1]
  IC50: 5 nM
[2]; Mus musculus, B16-F10
  IC50: 276 nM

## O=C1CN(c2c(O)cc3c(c2F)CCN(CC2CC2)CC3)S(=O)(=O)N1
[4]
  Papp A→B: 0.28 ×10⁻⁶ cm/s
[5]
  AUC(0-t): 5140 ng·h/mL
[1]
  IC50: 6.04 nM
[12]
  fraction unbound: 0.638
[14]
  solubility kinetic: 202 µM (≈ 74.6 µg/mL)
[20]
  half-life: 4.34 h
[27]
  fraction unbound: 0.801
[31]
  Cmax: 899 ng/mL
[2]; Mus musculus, B16-F10
  IC50: 399 nM
[35]
  Papp B→A: 0.18 ×10⁻⁶ cm/s

## CC1Cc2c(cc(O)c(N3CC(=O)NS3(=O)=O)c2F)CCN1 (racemic)
[5]
  AUC(0-t): 1360 ng·h/mL
[20]
  half-life: 1.25 h
[31]
  Cmax: 392 ng/mL

## CC(C)N1CCc2cc(O)c(N3CC(=O)NS3(=O)=O)c(F)c2CC1
[1]
  IC50: 9.2 nM
[2]; Mus musculus, B16-F10
  IC50: 378 nM

## O=C1CN(c2c(O)cc3c(c2F)CCNCC3)S(=O)(=O)N1
[1]
  IC50: 19.7 nM
[2]; Mus musculus, B16-F10
  IC50: 350 nM

## CCC1Cc2c(cc(O)c(N3CC(=O)NS3(=O)=O)c2F)CCN1C (racemic)
[1]
  IC50: 75.5 nM
[2]; Mus musculus, B16-F10
  IC50: 17700 nM

## O=C1CN(c2c(O)cc3c(c2F)CCN(CCCC2CC2)CC3)S(=O)(=O)N1
[5]
  AUC(0-t): 3480 ng·h/mL
[1]
  IC50: 4.5 nM
[20]
  half-life: 4.55 h
[31]
  Cmax: 621 ng/mL
[2]; Mus musculus, B16-F10
  IC50: 247 nM

## CN1CCc2cc(O)c(N3CC(=O)NS3(=O)=O)c(F)c2CC1
[4]
  Papp A→B: < 0.48 ×10⁻⁶ cm/s
[5]
  AUC(0-t): 7980 ng·h/mL
[1]
  IC50: 4.5 nM
[12]
  fraction unbound: 0.998
[17]
  Cmax: 3200 ng/mL
[20]
  half-life: 2.22 h
[21]
  fraction unbound: 0.874
[27]
  fraction unbound: 0.852
[30]
  AUC(0-t): 1490 ng·h/mL
[31]
  Cmax: 2290 ng/mL
[2]; Mus musculus, B16-F10
  IC50: 461 nM
[36]
  half-life: 0.9 h

## CCC1Cc2c(cc(O)c(N3CC(=O)NS3(=O)=O)c2F)CCN1 (racemic)
[1]
  IC50: 9.73 nM
[2]; Mus musculus, B16-F10
  IC50: 425 nM

## CC1Cc2c(cc(O)c(N3CC(=O)NS3(=O)=O)c2F)CCN1C (racemic)
[1]
  IC50: 17.4 nM
[2]; Mus musculus, B16-F10
  IC50: 669 nM

## CC1Cc2c(cc(O)c(N3CC(=O)NS3(=O)=O)c2F)CCN1 (stereo in doubt; 10b)
[1]
  IC50: 17.4 nM
[2]; b16-f10
  IC50: 455 nM

## CCN1CCc2cc(O)c(N3CC(=O)NS3(=O)=O)c(F)c2CC1
[3]
  bioavailability: 19%
[37]
  Activity: Non-Toxic
[5]
  AUC(0-t): 20900 ng·h/mL
[7]
  half-life: 1.31 h
[8]
  bioavailability: 19%
[9]
  Vd: 0.4 L/kg
[10]
  AUC(0-t): 1430 ng·h/mL
[1]
  IC50: 9.3 nM
[11]
  bioavailability: 140%
[38]
  Kd: 8.7 nM
[12]
  fraction unbound: 0.804
[13]
  Cmax: 402 ng/mL
[15]
  Vd: 0.26 L/kg
[16]
  LBF: 12.7%
[18]
  LBF: 14.1%
[20]
  half-life: 2.37 h
[21]
  fraction unbound: 0.815
[22]
  Cmax: 368 ng/mL
MC-38
  inhibition in vivo at 30 mg/kg: 89%
[24]
  Vd: 0.35 L/kg
[25]
  LBF: 15%
[26]
  Cmax: 17800 ng/mL
[27]
  fraction unbound: 0.884
[28]
  half-life: 2.1 h
[29]
  AUC(0-t): 1940 ng·h/mL
[39]
  half-life: 2.37 h
[31]
  Cmax: 4750 ng/mL
[32]
  bioavailability: 93%
[2]; Mus musculus, B16-F10
  IC50: 212 nM
[33]
  IC50: 3.09 nM
[34]
  AUC(0-t): 69200 ng·h/mL

— ChEMBL document CHEMBL5523702, “Synthesis and structure-activity optimization of azepane-containing derivatives as PTPN2/PTPN1 inhibitors” (Eur J Med Chem, 2024)
